Laboratory results reported in patent publication US7157099B2, “Sustained release pharmaceutical compositions for the parenteral administration of hydrophilic compounds” (Italfarmaco S.p.A., priority 2000, dated 2007).

How the values were obtained:
[1] = male rats, 6 mg/rat of microemulsion of Example 11
Protocol: (§1) Plasma samples were taken before the administration of the compound and 0.5 hours, 24 hours, 4, 6 and 8 days after treatment.
(§2) Octreotide was extracted from plasma and analyzed with LC-MS-MS apparatus vs. a calibration curve.

in vivo = details: male, rat, plasma, 6 mg/rat
Protocol: as §1, §2

For `C[C@@H](O)[C@@H]1NC(=O)[C@H](CCCCN)NC(=O)[C@@H](Cc2c[nH]c3ccccc23)NC(=O)[C@H](Cc2ccccc2)NC(=O)[C@@H](NC(=O)[C@H](N)Cc2ccccc2)CSSC[C@@H](C(=O)N[C@H](CO)[C@@H](C)O)NC1=O` [Octreotide], the “Time until which significant Octreotide plasma levels were found after treatment” value [1] was 8 days, the level at 0.5 h (in vivo) was 539 ng/mL and the level at 24 h (in vivo) was 40.2 ng/mL. The level at 96 h (in vivo) was 62.5 ng/mL, the level at 144 h (in vivo) was 4.5 ng/mL and the level at 192 h (in vivo) was 7.6 ng/mL.
